Several values for one entry are separate records, joined by “and”; a condition that tells them apart may be missing. Equal entries are not always repeated.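 Test compounds were applied to cells in 96-well plates for 48 hours at 5 doses. GI50 = concentration required for 50% inhibition of growth. TGI: concentration producing complete growth inhibition.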
Tested on: MDA-MB-468 breast
Test: NCI anticancer screen, dose series, 48 h

SMILES	GI50	TGI
COC1OCC(OS(=O)(=O)c2ccc(C)cc2)C(OC(=O)c2ccccc2)C1OC(=O)c1ccccc1 (centres undefined)	2.5 µM	> 100 µM
CCOCCc1c(O)nc(SC)[nH]c1=O	> 100 µM	> 100 µM
COc1ccc(-n2c(SCC(=O)Nc3ccc(-c4nc5ccccc5[nH]4)cc3)nc3ccccc3c2=O)cc1	1.97 µM	4.63 µM
C(=N/Nc1ncnc2nc[nH]c12)/c1ccccn1	0.0868 µM	0.441 µM
COc1cc(-c2cc(/C=C/C(=O)c3ccc4c(c3)OCO4)[nH]n2)cc(OC)c1OC	1.4 µM	2.86 µM
COc1ccccc1CNCCCN1C(=O)c2ccc3c4c(ccc(c24)C1=O)C(=O)N(CCCNCCCCNCCCCN)C3=O	0.28 µM	1.17 µM
Nc1ccccc1/C=N\Nc1ccccc1	79.7 µM	> 100 µM
O=C(CCc1nnc(-c2c(Cl)cccc2Cl)o1)c1nc2ccccc2[nH]1	0.797 µM	12.2 µM
COc1cc(C(=O)NC2CCN(C)CC2)ccc1Nc1ncc2c(n1)N(C1CCCC1)CC(F)(F)C(=O)N2C	< 0.01 µM	< 0.0427 µM
CN(C)c1ccc(/C=C(\C#N)c2cc3ccccc3n2C)cc1	0.0694 µM	2.11 µM
COc1ccc(Nc2c3c4c(cccc4[nH]c2=O)C(=O)c2ccccc2-3)cc1	0.0237 µM	
Fc1ccc(CNc2c3ccccc3nc3ccccc23)cc1	1.91 µM	4.86 µM
CC(C)c1ccc2c(N=Nc3ccc(S(N)(=O)=O)cc3)c(O)[nH]c2c1	7.76 µM	> 25 µM
O=C(CSc1nc2ccc([N+](=O)[O-])cc2[nH]1)Nc1cccc(Cl)c1	1.59 µM	5.89 µM
O=C1Nc2cc(Cl)ccc2Oc2cc(Oc3ccccc3)ccc21	1.85 µM	8.88 µM
O=C(CCCCC(=O)N/N=C\c1ccccc1Cl)N/N=C\c1ccccc1Cl	1.83 µM	49.5 µM
Cc1ccc(Cl)cc1Nc1nc(C(F)(F)F)ccc1C(=O)N/N=C/c1c(Cl)cccc1Cl	0.662 µM	8.47 µM
CS(=O)(=O)N1CCN(Cc2cc3nc(-c4cccc5[nH]ncc45)nc(N4CCOCC4)c3s2)CC1	0.0553 µM and 0.123 µM	0.467 µM and 0.985 µM
CCCn1cc(C2=C(c3cn(C)c4ccccc34)C(=O)NC2=O)c2ccccc21	0.429 µM	11.1 µM

SMILES	GI50	TGI
Nc1ncnc2c1c(-c1cccc(OCc3ccccc3)c1)cn2C1CC(CN2CCCC2)C1 (centres undefined)	1.38 µM	3.14 µM
CCCCCCCCCCCC1=NC(C)(C)CN1CCO	3.27 µM	12.8 µM
CCCN(CCC)c1ccc(C=O)cc1	16.4 µM	53.9 µM
C=C1C(=O)O[C@H]2[C@H]1CC/C(C=Nc1ccc(C(F)(F)F)cc1N)=C\CC[C@@]1(C)O[C@@H]21	3.49 µM	12.6 µM
O=C(/C=C/c1ccccn1)c1ccccc1O	1.61 µM	3.1 µM
C#CC[C@@H]1C[C@]2(C)[C@H]3CC[C@@H]4[C@H]5[C@H](C(=C)C)CC[C@]5(C(=O)O)CC[C@@]4(C)[C@]3(C)CC[C@H]2C(C)(C)[C@H]1O	2.21 µM	5.29 µM
O=C1[C@H]2Cc3c([nH]c4ccccc34)[C@@H](c3ccc(Br)cc3)N2C(=O)CN1C1CCN(CC2CCCCC2)CC1	13.2 µM	27.2 µM
O=C1Nc2ccccc2C1(c1ccc(O)c(F)c1)c1ccc(O)c(F)c1	0.29 µM	0.996 µM
CC(C)(C)C(=O)OCOP(=O)(OCOC(=O)C(C)(C)C)C1CCCN(OC(=O)c2ccccc2)C1=O (centres undefined)	1.86 µM	14.1 µM
O=C(c1ccccc1)c1ccc(Cl)c([N+](=O)[O-])c1	2.16 µM	6.46 µM
CCc1ccc(CCC(=O)Nc2ncc(Cc3cc(Cl)ccc3Cl)s2)o1	0.769 µM	5.97 µM
C=C1C(=O)O[C@H]2[C@H]1CC/C(COC(=O)/C=C\C(=O)NCc1ccc(Cn3c(=O)sn(-c4ccc(OC)cc4)c3=O)cc1)=C\CC[C@@]1(C)O[C@@H]21	0.652 µM	1.52 µM
Cn1cc(C2=C(c3c4n(c5ccccc35)CC(CN)C4)C(=O)NC2=O)c2ccccc21 (centres undefined)	2.79 µM	6.17 µM
CCOC(=O)C1=C(N)Oc2c(sc3c(C)cccc23)C1c1ccc(Cl)cc1 (centres undefined)	3.11 µM	13.4 µM
CCOC(=O)c1ccc2c(c1)[n+](=O)c(C(=O)c1ccc3ccccc3c1)c(C(F)(F)F)n2[O-]	0.372 µM	1.51 µM
Fc1ccc(-c2ncn(C3CCNCC3)c2-c2ccnc(Oc3ccccc3)n2)cc1	3.69 µM	12.2 µM
COc1ccc(C(=O)Nc2ncc(Cc3ccccc3Cl)s2)cc1	0.353 µM	33 µM
O=C(Nc1ncc(Cc2ccccc2)s1)c1ccc2c(c1)OCCO2	0.254 µM	
N/C(=N\c1nc2c(Cl)cc(Cl)cc2s1)C(Cl)(Cl)Cl	2.85 µM	12.3 µM

Source: PubChem BioAssay (NCI)
